Reference: ChEMBL document CHEMBL1142418, “CoMFA and HQSAR studies on 6,7-dimethoxy-4-pyrrolidylquinazoline derivatives as phosphodiesterase10A inhibitors” (Bioorg Med Chem, 2008)

Each molecule was assayed against cAMP and cAMP-inhibited cGMP 3',5'-cyclic phosphodiesterase 10A (Homo sapiens, UniProt Q9Y233) (assay: Inhibition of PDE10A).
cAMP and cAMP-inhibited cGMP 3',5'-cyclic phosphodiesterase 10A, sequence (Q9Y233 whole entry): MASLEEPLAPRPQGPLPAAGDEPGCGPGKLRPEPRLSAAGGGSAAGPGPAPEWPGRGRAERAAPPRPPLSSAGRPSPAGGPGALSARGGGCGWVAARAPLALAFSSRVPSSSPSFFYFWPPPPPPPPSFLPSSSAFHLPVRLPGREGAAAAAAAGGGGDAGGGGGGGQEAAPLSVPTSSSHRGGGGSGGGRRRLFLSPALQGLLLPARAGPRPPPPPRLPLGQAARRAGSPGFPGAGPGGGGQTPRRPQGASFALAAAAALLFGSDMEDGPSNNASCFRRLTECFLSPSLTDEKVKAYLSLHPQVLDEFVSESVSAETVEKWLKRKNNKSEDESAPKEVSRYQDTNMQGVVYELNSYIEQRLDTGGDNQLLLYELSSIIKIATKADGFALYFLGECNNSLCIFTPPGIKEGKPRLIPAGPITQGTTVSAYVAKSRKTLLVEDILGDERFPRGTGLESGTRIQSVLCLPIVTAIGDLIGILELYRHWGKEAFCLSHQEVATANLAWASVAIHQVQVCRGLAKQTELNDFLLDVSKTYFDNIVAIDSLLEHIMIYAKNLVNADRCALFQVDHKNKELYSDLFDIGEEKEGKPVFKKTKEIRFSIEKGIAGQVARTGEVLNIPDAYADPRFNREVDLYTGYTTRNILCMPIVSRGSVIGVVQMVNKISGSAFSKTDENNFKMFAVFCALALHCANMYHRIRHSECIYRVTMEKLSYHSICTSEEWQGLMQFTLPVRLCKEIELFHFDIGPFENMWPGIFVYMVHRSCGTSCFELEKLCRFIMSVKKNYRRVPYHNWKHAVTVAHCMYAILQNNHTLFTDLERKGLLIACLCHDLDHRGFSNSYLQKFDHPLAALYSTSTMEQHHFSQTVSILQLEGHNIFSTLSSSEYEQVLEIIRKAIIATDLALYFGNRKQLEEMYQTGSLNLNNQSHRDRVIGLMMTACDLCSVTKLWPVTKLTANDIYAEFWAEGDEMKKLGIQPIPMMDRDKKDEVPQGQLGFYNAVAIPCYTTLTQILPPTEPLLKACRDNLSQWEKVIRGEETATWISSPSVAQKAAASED

First: COc1cc2ncnc(N3CC[C@@H](Oc4cccc(-c5ccccc5)c4)C3)c2cc1OC
Second: COc1cc2ncnc(N3CC[C@@H](Oc4cccc5ccccc45)C3)c2cc1OC
The Ki of the first is 1.5-fold lower: 0.136 µM for the first, 0.21 µM for the second. The first binds more tightly here.

`COc1ccc2ccc(O[C@@H]3CCN(c4ncnc5cc(OC)c(OC)cc45)C3)cc2c1` and `COc1ccc2cc(O[C@@H]3CCN(c4ncnc5cc(OC)c(OC)cc45)C3)ccc2c1` are within 1.5-fold of each other in Ki: 0.017 µM for the first, 0.018 µM for the second.

Going from `CCOc1cccc(O[C@@H]2CCN(c3ncnc4cc(OC)c(OC)cc34)C2)c1` to `CCOc1ccc(O[C@@H]2CCN(c3ncnc4cc(OC)c(OC)cc34)C2)cc1`, the Ki falls from 0.094 µM to 0.054 µM (1.7-fold).

First: COc1cc2ncnc(N3CC[C@@H](Oc4cc5ccccc5cn4)C3)c2cc1OC
Second: COc1cc2ncnc(N3CC[C@@H](Oc4ccccn4)C3)c2cc1OC
The Ki of the first is 6.5-fold lower: 0.019 µM for the first, 0.123 µM for the second. The first binds more tightly here.

`COc1cc2ncnc(N3CC[C@@H](Oc4ccncc4)C3)c2cc1OC` and `COc1cc2ncnc(N3CC[C@@H](Oc4cccnc4)C3)c2cc1OC` are within 1.5-fold of each other in Ki: 0.112 µM for the first, 0.128 µM for the second.

First: COc1cc2ncnc(N3CC[C@@H](Oc4ccccc4C)C3)c2cc1OC
Second: COc1cc2ncnc(N3CC[C@@H](Oc4ccccc4Cl)C3)c2cc1OC
The Ki of the first is 1.6-fold higher: 0.326 µM for the first, 0.198 µM for the second.

`COc1cc2ncnc(N3CC[C@@H](Oc4ccc5ncccc5c4)C3)c2cc1OC` and `COc1cc2ncnc(N3CC[C@@H](Oc4ccc5cccnc5c4)C3)c2cc1OC` are the same in Ki: 0.012 µM for the first, 0.012 µM for the second.

First: COc1cc2ncnc(N3CC[C@@H](Oc4ncc(Cl)cn4)C3)c2cc1OC
Second: COc1cc2ncnc(N3CC[C@@H](Oc4ccccc4C#N)C3)c2cc1OC
The Ki of the first is 3-fold lower: 0.044 µM for the first, 0.13 µM for the second. The first binds more tightly here.

Compared with `COc1cc2ncnc(N3CC[C@@H](Oc4ccc(C(C)(C)C)cc4)C3)c2cc1OC`, `COc1cc2ncnc(N3CC[C@@H](Oc4ccc(OC(F)(F)F)cc4)C3)c2cc1OC` is 1.8-fold higher in Ki: 0.1 µM for the first, 0.185 µM for the second.

`COc1cc2ncnc(N3CC[C@@H](Oc4ccc5c(c4)CCC5)C3)c2cc1OC` and `COc1ccc(O[C@@H]2CCN(c3ncnc4cc(OC)c(OC)cc34)C2)cc1OC` are within 1.5-fold of each other in Ki: 0.068 µM for the first, 0.067 µM for the second.

First: COc1cc2ncnc(N3CC[C@@H](Oc4ccc5nc(C)ccc5c4)C3)c2cc1OC
Second: COc1cc2ncnc(N3CC[C@@H](Oc4cccc(C(C)C)c4)C3)c2cc1OC
The Ki of the first is 9.5-fold lower: 0.018 µM for the first, 0.171 µM for the second.

Going from `COc1cc2ncnc(N3CC[C@@H](Oc4ccccc4OC)C3)c2cc1OC` to `COc1cc2ncnc(N3CC[C@@H](Oc4ccccc4C(F)(F)F)C3)c2cc1OC`, the Ki rises from 0.24 µM to 0.811 µM (3.4-fold).

What follows are molecules tested against cGMP-inhibited 3',5'-cyclic phosphodiesterase 3B (Homo sapiens, UniProt Q13370) (assay: Inhibition of PDE3B).
cGMP-inhibited 3',5'-cyclic phosphodiesterase 3B, sequence (Q13370 whole entry): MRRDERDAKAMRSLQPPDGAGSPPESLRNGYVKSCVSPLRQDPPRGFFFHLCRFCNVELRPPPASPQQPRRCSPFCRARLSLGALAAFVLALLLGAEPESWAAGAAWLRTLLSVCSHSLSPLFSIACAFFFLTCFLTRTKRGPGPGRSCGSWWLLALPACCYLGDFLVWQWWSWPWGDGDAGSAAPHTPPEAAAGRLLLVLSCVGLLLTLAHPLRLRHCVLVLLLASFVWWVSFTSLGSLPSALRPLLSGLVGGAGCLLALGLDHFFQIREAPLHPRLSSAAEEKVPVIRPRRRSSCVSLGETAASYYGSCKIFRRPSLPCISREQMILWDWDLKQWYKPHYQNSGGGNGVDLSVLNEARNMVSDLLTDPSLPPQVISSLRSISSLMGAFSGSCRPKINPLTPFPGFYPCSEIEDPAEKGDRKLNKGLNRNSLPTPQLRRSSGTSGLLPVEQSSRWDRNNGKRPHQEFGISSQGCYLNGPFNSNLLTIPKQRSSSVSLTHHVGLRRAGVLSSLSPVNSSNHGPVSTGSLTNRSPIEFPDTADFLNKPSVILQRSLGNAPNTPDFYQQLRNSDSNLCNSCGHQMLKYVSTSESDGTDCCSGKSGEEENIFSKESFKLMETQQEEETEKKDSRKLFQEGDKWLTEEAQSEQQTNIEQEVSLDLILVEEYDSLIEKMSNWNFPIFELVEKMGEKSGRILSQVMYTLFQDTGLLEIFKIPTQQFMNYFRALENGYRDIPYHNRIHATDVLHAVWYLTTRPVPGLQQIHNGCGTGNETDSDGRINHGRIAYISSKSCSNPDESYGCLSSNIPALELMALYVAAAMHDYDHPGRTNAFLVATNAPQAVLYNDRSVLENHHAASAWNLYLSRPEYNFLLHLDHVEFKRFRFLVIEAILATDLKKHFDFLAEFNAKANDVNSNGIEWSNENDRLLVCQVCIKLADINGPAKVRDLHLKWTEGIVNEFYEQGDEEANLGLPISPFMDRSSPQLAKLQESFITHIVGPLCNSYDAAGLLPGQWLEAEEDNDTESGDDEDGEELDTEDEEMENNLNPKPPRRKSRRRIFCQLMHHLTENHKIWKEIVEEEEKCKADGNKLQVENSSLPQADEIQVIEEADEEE

Compared with `COc1cc2ncnc(N3CC[C@@H](Oc4cccc(C(C)C)c4)C3)c2cc1OC`, `COc1cc2ncnc(N3CC[C@@H](Oc4ccc(OC(F)(F)F)cc4)C3)c2cc1OC` is 3.8-fold higher in Ki: 0.474 µM for the first, 1.82 µM for the second. The first binds more tightly here.

The molecules below were run against cGMP-inhibited 3',5'-cyclic phosphodiesterase 3A (Homo sapiens, UniProt Q14432) (assay: Inhibition of PDE3A).
cGMP-inhibited 3',5'-cyclic phosphodiesterase 3A, sequence (Q14432 whole entry): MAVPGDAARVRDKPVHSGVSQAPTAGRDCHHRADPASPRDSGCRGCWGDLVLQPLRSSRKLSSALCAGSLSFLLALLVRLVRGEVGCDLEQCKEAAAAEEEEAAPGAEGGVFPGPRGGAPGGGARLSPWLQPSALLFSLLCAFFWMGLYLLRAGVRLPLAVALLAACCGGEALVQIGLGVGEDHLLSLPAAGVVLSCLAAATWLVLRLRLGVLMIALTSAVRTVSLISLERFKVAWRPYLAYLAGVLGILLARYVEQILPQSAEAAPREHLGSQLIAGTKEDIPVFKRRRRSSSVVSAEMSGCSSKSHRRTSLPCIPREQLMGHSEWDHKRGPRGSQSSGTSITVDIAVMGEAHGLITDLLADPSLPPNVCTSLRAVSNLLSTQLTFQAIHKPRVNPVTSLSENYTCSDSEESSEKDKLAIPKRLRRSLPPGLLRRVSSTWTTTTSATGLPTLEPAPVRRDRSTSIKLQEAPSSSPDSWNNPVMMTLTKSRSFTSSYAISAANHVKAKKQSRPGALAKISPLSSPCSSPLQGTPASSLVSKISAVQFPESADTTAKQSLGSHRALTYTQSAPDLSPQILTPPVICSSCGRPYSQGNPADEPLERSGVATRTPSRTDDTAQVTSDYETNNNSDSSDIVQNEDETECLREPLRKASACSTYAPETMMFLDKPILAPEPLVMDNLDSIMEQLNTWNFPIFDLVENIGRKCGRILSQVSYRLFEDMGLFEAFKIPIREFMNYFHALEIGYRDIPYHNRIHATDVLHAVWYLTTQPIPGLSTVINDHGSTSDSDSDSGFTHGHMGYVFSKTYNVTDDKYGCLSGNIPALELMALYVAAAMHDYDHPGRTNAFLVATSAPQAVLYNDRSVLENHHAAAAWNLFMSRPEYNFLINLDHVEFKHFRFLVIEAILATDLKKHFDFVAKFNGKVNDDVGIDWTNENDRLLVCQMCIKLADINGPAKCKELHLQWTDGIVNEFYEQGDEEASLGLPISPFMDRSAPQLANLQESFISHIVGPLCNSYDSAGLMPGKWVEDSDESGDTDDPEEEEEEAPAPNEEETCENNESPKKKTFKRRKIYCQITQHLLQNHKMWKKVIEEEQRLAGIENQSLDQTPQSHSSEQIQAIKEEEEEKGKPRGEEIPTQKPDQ

Going from `COc1cc2ncnc(N3CC[C@@H](Oc4cccc(C(C)C)c4)C3)c2cc1OC` to `COc1cc2ncnc(N3CC[C@@H](Oc4ccc(OC(F)(F)F)cc4)C3)c2cc1OC`, the Ki rises from 0.37 µM to 0.739 µM (2-fold). The first binds more tightly here.
